Results: US20240150365A1 (Hotspot Therapeutics, Inc., priority 2022, published 2024)
Where two headings read alike, the source gives them in different places.

What was measured:
[1] = molecular target: T1, MALT1 (Homo sapiens, UniProt Q9UDY8); assay: MALT-1 Fluorogenic Peptide Cleavage Assay (MALT1 inhibition assay); type: biochemical; conditions: Avi-tagged FL MALT-1, Ac-LRSR-AMC peptide substrate, 30 min pre-incubation, 90 min reaction
T1 construct: Avi-tagged FL MALT-1 (Pharmaron, stored at −70° C.); Avi tag
T1 sequence (Q9UDY8 1-824): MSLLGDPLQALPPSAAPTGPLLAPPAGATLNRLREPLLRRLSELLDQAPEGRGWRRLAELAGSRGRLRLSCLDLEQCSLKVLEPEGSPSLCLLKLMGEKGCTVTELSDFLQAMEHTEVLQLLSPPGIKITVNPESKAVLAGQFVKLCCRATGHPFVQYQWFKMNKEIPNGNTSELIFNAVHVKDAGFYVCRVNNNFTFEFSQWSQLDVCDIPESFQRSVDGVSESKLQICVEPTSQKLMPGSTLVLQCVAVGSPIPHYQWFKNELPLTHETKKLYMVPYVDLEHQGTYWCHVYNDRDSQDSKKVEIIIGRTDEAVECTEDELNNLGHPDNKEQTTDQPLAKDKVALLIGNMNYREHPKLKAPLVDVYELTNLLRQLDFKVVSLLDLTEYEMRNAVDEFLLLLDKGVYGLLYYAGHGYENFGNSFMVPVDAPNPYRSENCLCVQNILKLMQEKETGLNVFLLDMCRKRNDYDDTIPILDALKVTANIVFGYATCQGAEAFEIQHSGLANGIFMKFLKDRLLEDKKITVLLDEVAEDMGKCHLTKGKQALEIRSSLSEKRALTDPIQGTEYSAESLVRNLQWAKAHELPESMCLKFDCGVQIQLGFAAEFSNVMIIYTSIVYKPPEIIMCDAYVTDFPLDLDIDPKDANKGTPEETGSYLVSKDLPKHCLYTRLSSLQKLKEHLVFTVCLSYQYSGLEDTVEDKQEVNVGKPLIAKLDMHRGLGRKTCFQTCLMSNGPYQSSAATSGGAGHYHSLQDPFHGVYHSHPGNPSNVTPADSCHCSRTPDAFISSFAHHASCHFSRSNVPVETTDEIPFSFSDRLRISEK
Outline: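 IC50 from sigmoidal fits of % inhibition, with fluorescence (ex 342, em 441 nm) from AMC released from the quenched LRSR peptide after 90 min at room temperature. Full-length Avi-tagged MALT1 saw compound for 30 min first; final DMSO 2%.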

[2] = system: NF-kB; assay: NF-kB reporter assay in Jurkat cells stimulated with aCD3/aCD28/PMA; type: cell-based; conditions: Homo sapiens, Jurkat, read-out: NF-kB Reporter Assay IC50
Outline: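 Stimulation used final aCD3 5 μg/mL, aCD28 5 μg/mL and PMA 0.03 μg/mL for 4 hr at 37° C, after 1 hr compound pretreatment of 25,000 serum-starved Jurkat cells per well. One-Glo luminescence gave IC50 values.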

[3] = Jurkat cells, 1 hr compound incubation, aCD3/aCD28/PMA stimulation 4 hr, One-Glo readout

IC50 [1] [nM] | IC50 [2, 3] [nM] | SMILES | IC50 [2] [nM]
1000 to 2500 | > 2500 | COc1ccc2cnn(C)c2c1NS(=O)(=O)c1ccc(-c2nc(C)no2)nc1 [Example I-169, N-(6-Methoxy-1-Methyl-1H-Indazol-7-yl)-6-(3-Methyl-1,2,4-Oxadiazol-5-yl)Pyridine-3-Sulfonamide] | 
> 2500 | > 2500 | COc1ccc2cnn(C)c2c1NS(=O)(=O)c1ccc(-c2nnc(C)o2)nc1 [Example I-170, N-(6-Methoxy-1-Methyl-1H-Indazol-7-yl)-6-(5-Methyl-1,3,4-Oxadiazol-2-yl)Pyridine-3-Sulfonamide] | 
> 2500 | > 2500 | COc1ccc2cnn(C)c2c1NS(=O)(=O)c1ccc(-c2nc(C)n(C)n2)nc1 [Example I-176, 6-(1,5-Dimethyl-1,2,4-Triazol-3-yl)-N-(6-Methoxy-1-Methylindazol-7-yl)Pyridine-3-Sulfonamide] | 
> 2500 | > 2500 | COc1ccc2cnn(C)c2c1NS(=O)(=O)c1ccc(CO)nc1 [Example I-177, 6-(Hydroxymethyl)-N-(6-Methoxy-1-Methyl-1H-Indazol-7-yl)Pyridine-3-Sulfonamide] | 
> 2500 | > 2500 | COc1ccc2cnn(C)c2c1NS(=O)(=O)c1ccc(C(C)(C)O)nc1 [Example I-178, 6-(2-Hydroxypropan-2-yl)-N-(6-Methoxy-1-Methyl-1H-Indazol-7-yl)Pyridine-3-Sulfonamide] | 
< 400 | < 400 | COc1ncc2cnn(C)c2c1NS(=O)(=O)c1ccc(-n2cc(C)cn2)nc1 [Example I-184, N-{6-methoxy-1-methylpyrazolo[4,3-c]pyridin-7-yl}-6-(4-methylpyrazol-1-yl)pyridine-3-sulfonamide] | 
< 400 | < 400 | COc1ncc2cnn(C)c2c1NS(=O)(=O)c1ccc(-n2ccc(C3CC3)n2)nc1 [Example I-185, 6-(3-cyclopropyl-1H-pyrazol-1-yl)-N-(6-methoxy-1-methyl-1H-pyrazolo[4,3-c]pyridin-7-yl)pyridine-3-sulfonamide] | 
< 400 | < 400 | COc1ncc2cnn(C)c2c1NS(=O)(=O)c1ccc(-c2csc(C)n2)nc1 [Example I-186, N-(6-methoxy-1-methyl-1H-pyrazolo[4,3-c]pyridin-7-yl)-6-(2-methylthiazol-4-yl)pyridine-3-sulfonamide] | 
< 400 | < 400 | COc1ccc2ccn(C)c2c1NS(=O)(=O)c1ccc(-n2cc(C(F)(F)F)cn2)nc1 [Example I-188, N-(6-methoxy-1-methyl-1H-indol-7-yl)-6-(4-(trifluoromethyl)-1H-pyrazol-1-yl)pyridine-3-sulfonamide] | 
< 400 | < 400 | COc1ccc2cnn(C)c2c1NS(=O)(=O)c1ccc(-n2cc(C(C)(F)F)cn2)nc1 [Example I-191, 6-(4-(1,1-difluoroethyl)-1H-pyrazol-1-yl)-N-(6-methoxy-1-methyl-1H-indazol-7-yl)pyridine-3-sulfonamide] | 
< 400 | < 400 | COc1ncc2cnn(C)c2c1NS(=O)(=O)c1ccc(-n2cc(F)cn2)nc1 [Example I-193, 6-(4-fluoro-1H-pyrazol-1-yl)-N-(6-methoxy-1-methyl-1H-pyrazolo[4,3-c]pyridin-7-yl)pyridine-3-sulfonamide] | 
< 400 | < 400 | COc1ncc2cnn(C)c2c1NS(=O)(=O)c1ccc(-n2cc(C(C)C)cn2)nc1 [Example I-194, 6-(4-isopropyl-1H-pyrazol-1-yl)-N-(6-methoxy-1-methyl-1H-pyrazolo[4,3-c]pyridin-7-yl)pyridine-3-sulfonamide] | 

Second part, the compound before the results:

SMILES | IC50 [1] [nM] | IC50 [2, 3] [nM] | IC50 [2] [nM]
CC(C)c1ccn(-c2ccc(S(=O)(=O)N(C)c3cccc4cnn(C)c34)cn2)n1 [Example I-171, 6-(3-isopropyl-1H-pyrazol-1-yl)-N-methyl-N-(1-methyl-1H-indazol-7-yl)pyridine-3-sulfonamide] | > 2500 | < 400 | 
COc1ccc2cnn(C)c2c1N(C)S(=O)(=O)c1ccc(-n2cc(C(C)C)cn2)nc1 [Example I-172, 6-(4-isopropylpyrazol-1-yl)-N-(6-methoxy-1-methylindazol-7-yl)-N-methylpyridine-3-sulfonamide] | < 400 | 400 to 1000 | 
COc1ccc2cnn(C)c2c1NS(=O)(=O)c1ccc(-c2csc(C)n2)nc1 [Example I-173, N-(6-methoxy-1-methylindazol-7-yl)-6-(2-methyl-1,3-thiazol-4-yl)pyridine-3-sulfonamide] | < 400 |  | < 400
COc1ccc2[nH]cc(C)c2c1NS(=O)(=O)c1ccc(-n2cc(C(F)(F)F)cn2)nc1 [Example I-174, N-(5-methoxy-3-methyl-1H-indol-4-yl)-6-(4-(trifluoromethyl)-1H-pyrazol-1-yl)pyridine-3-sulfonamide] | < 400 | < 400 | 
COc1ccc2cn[nH]c2c1NS(=O)(=O)c1ccc(-n2cc(C(F)(F)F)cn2)nc1 [Example I-175, N-(6-methoxy-1H-indazol-7-yl)-6-(4-(trifluoromethyl)-1H-pyrazol-1-yl)pyridine-3-sulfonamide] | < 400 | < 400 | 
Cn1c(=O)c2cccc(N)c2n1S(=O)(=O)c1ccc(-n2cc(C(F)(F)F)cn2)nc1 [Example I-179, 7-Amino-2-Methyl-1-((6-(4-(Trifluoromethyl)-1H-Pyrazol-1-yl)Pyridin-3-yl)Sulfonyl)-1,2-Dihydro-3H-Indazol-3-One] | > 2500 | > 2500 | 
COc1ncc2nnn(C)c2c1NS(=O)(=O)c1ccc(-n2cc(C(F)(F)F)cn2)nc1 [Example I-180, N-{6-methoxy-1-methyl-[1,2,3]triazolo[4,5-c]pyridin-7-yl}-6-[4-(trifluoromethyl)pyrazol-1-yl]pyridine-3-sulfonamide] | 400 to 1000 | 1000 to 2500 | 
Cn1[nH]c2c(NS(=O)(=O)c3ccc(-n4cc(C(F)(F)F)cn4)nc3)cccc2c1=O [Example I-181, N-(2-methyl-3-oxo-2,3-dihydro-1H-indazol-7-yl)-6-(4-(trifluoromethyl)-1H-pyrazol-1-yl)pyridine-3-sulfonamide] | > 2500 | 400 to 1000 | 
Cn1c(=O)c2c(NS(=O)(=O)c3ccc(-n4cc(C(F)(F)F)cn4)nc3)cccc2n1C [Example I-182, N-(1,2-dimethyl-3-oxo-2,3-dihydro-1H-indazol-4-yl)-6-(4-(trifluoromethyl)-1H-pyrazol-1-yl)pyridine-3-sulfonamide] | > 2500 | > 2500 | 
COc1ncc2cnn(C)c2c1N(C)S(=O)(=O)c1ccc(-n2cc(C(F)(F)F)cn2)nc1 [Example I-183, N-(6-methoxy-1-methyl-1H-pyrazolo[4,3-c]pyridin-7-yl)-N-methyl-6-(4-(trifluoromethyl)-1H-pyrazol-1-yl)pyridine-3-sulfonamide] | < 400 | < 400 | 
COc1ncc2cnn(C)c2c1NS(=O)(=O)c1ccc(-n2cc(C3CC3)cn2)nc1 [Example I-187, 6-(4-cyclopropylpyrazol-1-yl)-N-{6-methoxy-1-methylpyrazolo[4,3-c]pyridin-7-yl}pyridine-3-sulfonamide] | < 400 | < 400 | 
Cc1ncc2cnn(C)c2c1NS(=O)(=O)c1ccc(-n2cc(C(F)(F)F)cn2)nc1 [Example I-189, N-(1,6-dimethyl-1H-pyrazolo[4,3-c]pyridin-7-yl)-6-(4-(trifluoromethyl)-1H-pyrazol-1-yl)pyridine-3-sulfonamide] | 1000 to 2500 | 1000 to 2500 | 
Cn1[nH]c2cccc(NS(=O)(=O)c3ccc(-n4cc(C(F)(F)F)cn4)nc3)c2c1=O [Example I-190, N-(2-methyl-3-oxo-2,3-dihydro-1H-indazol-4-yl)-6-(4-(trifluoromethyl)-1H-pyrazol-1-yl)pyridine-3-sulfonamide] | > 2500 | > 2500 | 
COc1ncc2cnn(C)c2c1NS(=O)(=O)c1ccc(-n2cc(C(F)F)cn2)nc1 [Example I-192, 6-(4-(difluoromethyl)-1H-pyrazol-1-yl)-N-(6-methoxy-1-methyl-1H-pyrazolo[4,3-c]pyridin-7-yl)pyridine-3-sulfonamide] | < 400 | < 400 | 
